The values that follow come from patent publication US20050209278A1, “Piperidinyl- and piperazinyl-sulfonylmethyl hydroxamic acids and their use as protease inhibitors” (priority 2002, published 2005).

Values joined by “and” are separate entries in the source; they are usually repeats but may differ in a detail not shown here. Identical values can stand only once.

In test [1] the target is T1, MMP-13 (Homo sapiens, UniProt P45452).
T1 construct: made in house; host or cells: baculovirus / insect cells
Nature of the test: In vitro MMP inhibition, Ki determination (fluorogenic substrate II). The class given is biochemical. To be noted: value outside parentheses; read-out: MMP-13 Ki. The method in brief:
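Ki determined with human recombinant MMP-13, baculovirus-expressed as proenzyme and activated with APMA. Fluorogenic MCA/Dpa substrate II at 4 μM (at or below Km) with low enzyme in Tris buffer pH 7.5 with CaCl2. Incubation was 1 h at room temperature, with fluorescence read at 330/420 nm.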

Test [2] concerns the target T2, MMP-2 (Homo sapiens, UniProt P08253).
T2 construct: made in house; host or cells: MMP-2-transfected p2AHT2 cells
T2 sequence (P08253 110-660): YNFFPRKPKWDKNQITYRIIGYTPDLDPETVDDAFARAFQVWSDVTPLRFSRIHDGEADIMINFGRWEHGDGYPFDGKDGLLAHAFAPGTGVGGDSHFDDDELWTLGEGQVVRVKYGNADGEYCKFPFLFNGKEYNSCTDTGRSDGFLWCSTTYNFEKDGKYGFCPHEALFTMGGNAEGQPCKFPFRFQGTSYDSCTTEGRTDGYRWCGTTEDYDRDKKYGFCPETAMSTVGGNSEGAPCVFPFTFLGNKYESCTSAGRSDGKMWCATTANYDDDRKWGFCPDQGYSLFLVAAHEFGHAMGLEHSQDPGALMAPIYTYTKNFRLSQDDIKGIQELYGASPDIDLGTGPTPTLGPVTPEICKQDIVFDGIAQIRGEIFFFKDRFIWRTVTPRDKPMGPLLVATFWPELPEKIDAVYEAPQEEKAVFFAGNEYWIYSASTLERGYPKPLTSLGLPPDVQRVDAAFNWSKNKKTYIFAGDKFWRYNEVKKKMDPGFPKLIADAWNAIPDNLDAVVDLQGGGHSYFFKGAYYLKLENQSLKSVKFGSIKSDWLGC
The description is as above. It counts as biochemical. To be noted: value outside parentheses; read-out: MMP-2 Ki.

As a reminder, the Ki is the dissociation constant of the complex between target and ligand, obtained from inhibition or displacement.

Turning to `CCC=C1CCN(S(=O)(=O)C2(C(=O)NO)CCOCC2)CC1` [Example 374], the Ki came out at 5.72 nM in test [1] and 18.6 nM in test [2].

`CCCCc1cnc(N2CCN(S(=O)(=O)C3(C(=O)NO)CCN(CCOC)CC3)CC2)nc1` [Example 334]: the results for the Ki in test [1] and in test [2] were 2.75 nM and 5.99 nM, respectively.

Regarding `O=C(NO)C1(S(=O)(=O)N2CCC(c3ccc(OC(F)(F)C(F)F)cc3)CC2)CCOCC1` [Example 337], the Ki in test [1] came out at 0.708 nM; in test [2], 0.427 nM.

Turning to `O=C(NO)C1(S(=O)(=O)N2CCN(c3ncc(-c4cccc(-c5ccccc5)c4)s3)CC2)CCOCC1` [Example 365], the results for the Ki in test [1] and in test [2] were 101 nM and 201 nM, respectively.

For the molecule `O=C(NO)C1(S(=O)(=O)N2CCC(COCC(F)(F)C(F)(F)C(F)(F)F)CC2)CCOCC1` [Example 377], the Ki in test [1] was determined as 87.5 nM; in test [2], 37.5 nM.

As for `O=C(NO)C1(S(=O)(=O)N2CCN(c3ccc(OCCCC(F)(F)F)cc3)CC2)CC(O)C1` (centres unmarked) [Example 342], the figures for the Ki in test [1] and in test [2] were 3.89 nM and 16.9 nM, respectively.

Regarding `CCN1CCC(C(=O)NO)(S(=O)(=O)N2CCN(c3ccc(-c4ccccc4)c(F)c3)CC2)CC1` [Example 341], the Ki was 2.59 nM in test [1] and 0.829 nM in test [2].

With `O=C(NO)C1(S(=O)(=O)N2CCC(c3ccc(OCC(F)(F)C(F)F)cc3)CC2)CCN(C2CC2)CC1` [Example 350], the Ki in test [1] was 0.523 nM; in test [2], 0.891 nM.

Take `CCCCOc1ccc(N2CCN(S(=O)(=O)C3(C(=O)NO)CCN(CCOC)CC3)CC2)nc1` [Example 325]: the Ki was 0.09 nM in test [1] and 0.18 nM in test [2].

Take `O=C(NO)C1(S(=O)(=O)N2CCN(c3ccc(CCCC(F)(F)F)cc3F)CC2)CCOCC1` [Example 386]: the Ki in test [1] was found to be 2.29 nM; in test [2] it was 4.88 nM.

Turning to `COC(=O)c1ccc(N2CCN(S(=O)(=O)C3(C(=O)NO)CCOCC3)CC2)cc1` [Example 324], the Ki in test [1] is 3.55 nM; in test [2] it was 1.22 nM.

As to `CCCCc1ccc(C2CCN(S(=O)(=O)C3(C(=O)NO)CCN(CC)CC3)CC2)nc1` [Example 396], the Ki in test [1] stood at 2.19 nM; in test [2], 2.32 nM.

As for `CC(C)c1ccc(-c2cnc(N3CCN(S(=O)(=O)C4(C(=O)NO)CCOCC4)CC3)s2)cc1` [Example 366], the Ki in test [1] came out at 0.182 nM; in test [2], 0.264 nM.

In the case of `O=C(NO)C1(S(=O)(=O)N2CCN(c3ncc(-c4ccc(F)cc4F)s3)CC2)CCOCC1` [Example 359], the Ki was found to be 0.439 nM in test [1] and 0.266 nM in test [2].

Regarding `O=C(NO)C1(S(=O)(=O)N2CCC(c3ccc(-c4ccc(C(F)(F)F)cc4)cn3)CC2)CCOCC1` [Example 395], the Ki in test [1] stood at 0.89 nM; in test [2], 7.17 nM.

For the molecule `O=C(NO)C1(S(=O)(=O)N2CCC(N3CCN(c4ccc(Cl)cc4)CC3)CC2)CCOCC1` [Example 315], the Ki was found to be 420 nM in test [1] and 1820 nM in test [2].

`CCc1ccc(-c2cnc(N3CCN(S(=O)(=O)C4(C(=O)NO)CCOCC4)CC3)s2)cc1` [Example 381]: the results for the Ki in test [1] and in test [2] were 0.074 nM and 0.209 nM, respectively.

As for `O=C(NO)C1(S(=O)(=O)N2CCN(c3ccc(-c4ccc(OC(F)(F)F)cc4)cc3)CC2)CCOCC1` [Example 327], the Ki stood at 0.499 nM in test [1] and 0.97 nM in test [2].

For `O=C(NO)C1(S(=O)(=O)N2CCC(c3ccc(CCCC(F)(F)F)cn3)CC2)CCOCC1` [Example 338], the Ki was 0.302 nM in test [1] and 1.09 nM in test [2].

For `O=C(NO)C1(S(=O)(=O)N2CCC(c3ccc(-c4cccnc4)cn3)CC2)CCOCC1` [Example 390], the Ki in test [1] is 6.72 nM; in test [2] it was 12.3 nM.

Consider `COCCN1CCC(C(=O)NO)(S(=O)(=O)N2CCN(c3ncccn3)CC2)CC1` [Example 332], for which the figures for the Ki in test [1] and in test [2] were 28.2 nM and 190 nM, respectively.

Regarding `O=C(NO)C1(S(=O)(=O)N2CCN(c3ccc(OCC4CC4)c(F)c3)CC2)CCOCC1` [Example 333], the Ki stood at 1.12 nM in test [1] and 0.58 nM in test [2].

For the molecule `O=C(NO)C1(S(=O)(=O)N2CCC(c3ccc(OCC(F)(F)C(F)(F)F)cc3)CC2)CCOCC1` [Example 330], the inhibition constant (Ki) in test [1] turned out to be 0.92 nM; in test [2] it was 1.18 nM.

With `Cc1ccc(-c2cnc(N3CCN(S(=O)(=O)C4(C(=O)NO)CCOCC4)CC3)s2)cc1` [Example 344], the results for the Ki in test [1] and in test [2] were 0.267 nM and 0.177 nM, respectively.

As for `O=C(NO)C1(S(=O)(=O)N2CCN(c3ncc(-c4ccccn4)s3)CC2)CCOCC1` [Example 387], the Ki in test [1] was found to be 31 nM; in test [2], 6.71 nM.

Consider `O=C(NO)C1(S(=O)(=O)N2CCN(c3ccc(CCCC(F)(F)F)cn3)CC2)CCOCC1` [Example 358], for which the Ki stood at 0.15 nM in test [1] and 0.281 nM in test [2].

As to `O=C(NO)C1(S(=O)(=O)N2CCC(COCc3ccccc3)CC2)CCOCC1` [Example 373], the figures for the Ki in test [1] and in test [2] were 3.37 nM and 6.12 nM, respectively.

`O=C(NO)C1(S(=O)(=O)N2CCN(c3cnn(-c4ccccc4)c(=O)c3)CC2)CCOCC1` [Example 322]: the Ki was > 10000 nM in test [1] and 7870 nM in test [2].

`Cc1ccccc1-c1cnc(N2CCN(S(=O)(=O)C3(C(=O)NO)CCOCC3)CC2)s1` [Example 348]: the Ki worked out at 2.99 nM in test [1] and 4.61 nM in test [2].

For the molecule `NC(=O)c1ccccc1-c1cnc(N2CCN(S(=O)(=O)C3(C(=O)NO)CCOCC3)CC2)s1` [Example 383], the Ki worked out at 104 nM in test [1] and 1230 nM in test [2].

For the molecule `O=C(NO)C1(S(=O)(=O)N2CCN(c3cccc(OCCCC(F)(F)F)c3)CC2)CCOCC1` [Example 355], the Ki in test [1] came out at 51.1 nM; in test [2], 38.3 nM.

With `O=C(NO)C1(S(=O)(=O)N2CCC(c3ccc(-c4ccccc4)cn3)CC2)CCOCC1` [Example 392], the figures for the Ki in test [1] and in test [2] were 4.23 nM and 4.02 nM, respectively.

Consider `N#Cc1cccc(-c2cnc(N3CCN(S(=O)(=O)C4(C(=O)NO)CCOCC4)CC3)s2)c1` [Example 384], for which the Ki turned out to be 0.272 nM in test [1] and 0.185 nM in test [2].

On to `O=C(NO)C1(S(=O)(=O)N2CCN(c3ccc(-c4ccc(F)cc4F)cn3)CC2)CCOCC1` [Example 316], for which the Ki was 0.77 nM in test [1] and 0.73 nM in test [2].

As for `O=C(NO)C1(S(=O)(=O)N2CCC(c3ccc(CCCC(F)(F)F)cc3)CC2)CCN(C2CC2)CC1` [Example 351], the Ki in test [1] was 0.359 nM; in test [2] it was 1.26 nM.

For `O=C(NO)C1(S(=O)(=O)N2CCN(c3ncc(-c4ccc(-c5ccccc5)cc4)s3)CC2)CCOCC1` [Example 360], the Ki in test [1] was 0.426 nM; in test [2] it was 0.395 nM.

As to `O=C(NO)C1(S(=O)(=O)N2CCN(c3cnn(CCCC(F)(F)F)c(=O)c3)CC2)CCOCC1` [Example 321], the Ki in test [1] and in test [2] was > 10000 nM in each case.

On to `O=C(NO)C1(S(=O)(=O)N2CCN(c3ccc(-c4ccccc4)cn3)CC2)CCOCC1` [Example 372], for which the Ki in test [1] was 0.485 nM and 0.654 nM; in test [2] it was 0.451 nM and 0.479 nM.

On to `O=C(NO)C1(S(=O)(=O)N2CCN(c3ncc(-c4ccc(Cl)c(Cl)c4)s3)CC2)CCOCC1` [Example 369], for which the Ki in test [1] turned out to be 1.35 nM; in test [2] it was 0.879 nM.

On to `CCCCc1ccc(C2CCN(S(=O)(=O)C3(C(=O)NO)CCNCC3)CC2)nc1` [Example 388], for which the Ki in test [1] was 15.1 nM; in test [2], 11.2 nM.

With `O=C(NO)C1(S(=O)(=O)N2CCN(c3ccc(-c4ccc(Cl)c(Cl)c4)cc3)CC2)CCOCC1` [Example 328], the Ki amounted to 0.71 nM in test [1] and 3.58 nM in test [2].

Turning to `CC(C)(C)c1ccc(-c2cnc(N3CCN(S(=O)(=O)C4(C(=O)NO)CCOCC4)CC3)s2)cc1` [Example 347], the Ki in test [1] was 1.48 nM; in test [2] it was 8.57 nM.

Consider `CCCCc1ccc(C2CCN(S(=O)(=O)C3(C(=O)NO)CCOCC3)CC2)nc1` [Example 323], for which the Ki in test [1] is 0.65 nM; in test [2], 0.5 nM.

As for `O=C(NO)C1(S(=O)(=O)N2CCC(c3ccc(OC(F)(F)C(F)(F)F)cc3)CC2)CCOCC1` [Example 349], the Ki in test [1] worked out at 5.08 nM; in test [2], 2.12 nM.

For `O=C(NO)C1(S(=O)(=O)N2CCC(COCC(F)(F)C(F)F)CC2)CCOCC1` [Example 375], the Ki in test [1] stood at 509 nM; in test [2], 44.1 nM.

`Cc1cccc(-c2cnc(N3CCN(S(=O)(=O)C4(C(=O)NO)CCOCC4)CC3)s2)c1` [Example 370]: the Ki in test [1] stood at 4.16 nM; in test [2] it was 1.34 nM.

Take `COc1ccccc1-c1ccc(N2CCN(S(=O)(=O)C3(C(=O)NO)CCOCC3)CC2)nc1` [Example 318]: the Ki in test [1] stood at 62.3 nM; in test [2], 79 nM.

On to `O=C(NO)C1(S(=O)(=O)N2CCN(c3ncc(-c4ccc(O)cc4)s3)CC2)CCOCC1` [Example 368], for which the figures for the Ki in test [1] and in test [2] were 0.329 nM and 0.225 nM, respectively.

Consider `O=C(NO)C1(S(=O)(=O)N2CCC(COCC(F)(F)C(F)(F)C(F)(F)C(F)F)CC2)CCOCC1` [Example 378], for which the Ki in test [1] was 48.4 nM; in test [2], 24.8 nM.
